Columns and labels:
[1] = patients who discontinued ICS and LABA, 12 weeks; placebo 41%; cited from earlier work
[2] = test system: ILC2 population in human PBMC; assay: ILC2 cell population in human PBMC culture (flow cytometry); assay type: cell-based; design: key: −: no inhibition; +: weak; ++: moderate; +++: strong inhibition; conditions: IL-2 (10 unit/mL) and three alarmins (10 ng/ml), 5 days
Text: (§1) While alarmins are known to work in concert to enhance ILC2 and Th2 cell functions such as increase in cell population, steroids such as Dexamethasone (Dex) can negate these effects, resulting in the mitigation of type 2 immune responses [Jia, Yi et al. American Journal Of Respiratory Cell And Molecular Biology, vol. 55, 5 (2016): 675-683]. ILC2 and Th2 cell population can be determined by flow cytometry (BD FACSVerse) following standard procedures known to those skilled in the art.

[3] = test system: Th2 cell population in human PBMC; assay: Th2 cell population in human PBMC culture (flow cytometry); assay type: cell-based; design: key: −: no inhibition; +: weak; ++: moderate; +++: strong inhibition; conditions: IL-2 (10 unit/mL) and three alarmins (10 ng/ml), 5 days
Text: as §1

Compound	rate of loss of asthma control [1] [%]	Cell proliferation inhibition, ILC2 [2]	Cell proliferation inhibition, Th2 [3]
Dupilumab: anti-IL-4Ra antibody inhibiting both IL-4 and IL-13 responses [reference compound]	19		
C[C@@H]1C[C@H]2[C@@H]3CCC4=CC(=O)C=C[C@]4(C)[C@@]3(F)[C@@H](O)C[C@]2(C)[C@@]1(O)C(=O)CO [Dex, Dexamethasone, reference compound]		+	+++

Reference: patent US20240409647A1, “BISPECIFIC BINDING PROTEINS AGAINST ALARMINS AND USES THEREOF” (SINOMAB BIOSCIENCE LIMITED, priority 2022, published 2024)
